According to doi:10.1101/2024.08.25.609621 (bioRxiv, 2024):
Read-outs that look alike come from different tables or passages of the source.

Target: SARS-CoV-2 NSP3 macrodomain (Mac1), P43 crystal form (Severe acute respiratory syndrome coronavirus 2, UniProt P0DTD1)
Format: binding
Details: for 1-BDC: PanDDA background density correction; for Total number of conformations: ligand conformations modeled in Mac1 crystal structure; for 2*(1-BDC) (%): occupancy estimate from PanDDA 1-BDC; for X-ray crystallography: Binding site: site where the ligand is bound in the X-ray crystal structure
[1] = X-ray crystal structure determined (TRUE)
[2] = crystal soak, soak concentration 10 mM
[3] = crystal soak, soak concentration 10 mM, TRUE = ligand hit
[4] = site of ligand in X-ray crystal structure
[5] = soak concentration 10 mM, DMSO background map
[6] = crystal soak concentration 20 mM, P43 crystals
[7] = crystal soak, soak concentration 10 mM, DMSO background map
[8] = crystal soak 10 mM, P43 crystals
[9] = crystal soak 10 mM, DMSO background map
[10] = crystal soak 10 mM, TFA/DMSO background map

Row | SMILES | 1-BDC | X-ray crystal structure [1] | Pandda run, overall: Modeled [2] | Pandda run, overall: Hit [3] | Total number of conformations | 2*(1-BDC) (%) | Binding site [4] | PanDDA run, DMSO background map: 1-BDC [5] | PanDDA run, DMSO background map: Hit [5] | Pandda run, overall: Hit [8] | Pandda run, overall: Modeled [8] | PanDDA run, DMSO background map: 1-BDC [9] | PanDDA run, DMSO background map: Hit [9] | other results
1 | OCC(CC(F)(F)F)Nc1ncnc2[nH]ccc12 (centres unmarked) [AVI-3637] | 0.23 | TRUE | TRUE | TRUE | 1 | 46 | Adenosine | 0.23 | TRUE | – | – | – | – | –
2 | CC1CC(C(=O)O)CCN1C(=O)c1ccc2c(c1)NC(=O)CO2 (centres unmarked) [AVI-303] | 0.13 | – | – | – | 1 | 26 | – | – | – | – | – | – | – | X-ray crystal structure (TRUE = crystal structure with ligand determined): TRUE; PanDDA run, DMSO background map: Hit (crystal soak concentration 20 mM, DMSO background map): TRUE; PanDDA run, DMSO background map: 1-BDC (crystal soak concentration 20 mM, DMSO background map, event 1): 0.19; Pandda run, overall: Hit [6]: TRUE; Pandda run, overall: Modeling comment [6]: Duplicate, not modeled; Pandda run, overall: Hit (crystal soak, soak concentration 10 mM, P43 crystals, TRUE = ligand-binding event identified): TRUE; PanDDA run, DMSO background map: Hit [7]: TRUE; PanDDA run, DMSO background map: Modeled [7]: TRUE; PanDDA run, DMSO background map: 1-BDC (crystal soak, soak concentration 10 mM, DMSO background map, event 1): 0.13; Pandda run, overall: Modeled (crystal soak, soak concentration 10 mM, TRUE = ligand modeled): TRUE; Binding site (site of Mac1 where ligand bound in crystal structure): Adenosine
3 | CCC(CO)Nc1ncnc2[nH]ccc12 (centres unmarked) [AVI-3643] | 0.16 | TRUE | – | – | 1 | 32 | Adenosine | – | – | TRUE | TRUE | 0.16 | TRUE | –
4 | OCC1CC2(CCOCC2)CN1c1ncnc2[nH]ccc12 (centres unmarked) [AVI-3707] | 0.21 | – | TRUE | TRUE | 1 | 42 | – | 0.21 | TRUE | – | – | – | – | Pandda run, overall: Modeling comment [2]: Distal site, weak density, not modeled; X-ray crystallography: Binding site: Adenosine
5 | OCC(CC1CCCCC1)Nc1ncnc2[nH]ccc12 (centres unmarked) [AVI-3690] | 0.12 | TRUE | – | – | 1 | 24 | Adenosine | – | – | TRUE | TRUE | 0.12 | TRUE | Pandda run, overall: Modeling comment [8]: Weak density for alternative ligand conformation
6 | O=C(O)C(F)(F)F.OCC1(Nc2ncnc3[nH]ccc23)CC1 [AVI-3688] | 0.2 | TRUE | – | – | 1 | 40 | Adenosine | – | – | TRUE | TRUE | 0.2 | TRUE | –
7 | OCC(Nc1ncnc2[nH]ccc12)c1ccccc1 (centres unmarked) [AVI-3715] | 0.18 | TRUE | TRUE | TRUE | 1 | 36 | Adenosine | 0.18 | TRUE | – | – | – | – | –
8 | OCC1CCCN1c1ncnc2[nH]ccc12 (centres unmarked) [AVI-3685] | 0.25 | – | – | – | 1 | 50 | – | – | – | TRUE | TRUE | 0.25 | TRUE | X-ray crystallography: Binding site: Adenosine
9 | OCC(COCc1ccccc1)Nc1ncnc2[nH]ccc12 (centres unmarked) [AVI-3709] | 0.19 | TRUE | TRUE | TRUE | 2 | 38 | Adenosine | 0.19 | TRUE | – | – | – | – | –
10 | OCC(Cc1nccs1)Nc1ncnc2[nH]ccc12 (centres unmarked) [AVI-3673] | 0.19 | TRUE | – | – | 1 | 38 | Adenosine | – | – | TRUE | TRUE | 0.19 | TRUE | –
11 | OCC(Cc1cncs1)Nc1ncnc2[nH]ccc12 (centres unmarked) [AVI-3703] | 0.15 | TRUE | TRUE | TRUE | 1 | 30 | Adenosine | 0.15 | TRUE | – | – | – | – | –
12 | O=C(O)C(F)(F)F.O[C@H]1CCC[C@@H]1Nc1ncnc2[nH]ccc12 [AVI-3639] | 0.11 | TRUE | – | – | 1 | 22 | Adenosine | – | – | TRUE | TRUE | 0.11 | TRUE | –
13 | O=C(O)C(F)(F)F.OC[C@@H]1CC2(CC2)CN1c1ncnc2[nH]ccc12 [AVI-3710] | 0.26 | – | TRUE | TRUE | 2 | 52 | – | 0.26 | TRUE | – | – | – | – | Pandda run, overall: Modeling comment [2]: Weak density for open state of Phe132 loop; X-ray crystallography: Binding site: Adenosine
14 | OCC(Nc1ncnc2[nH]ccc12)C1CCc2ccccc21 (centres unmarked) [AVI-3693] | 0.22 | TRUE | – | – | 2 | 44 | Adenosine | – | – | TRUE | TRUE | 0.22 | TRUE | –
15 | OCC(CC1CC1)Nc1ncnc2[nH]ccc12 (centres unmarked) [AVI-3662] | 0.14 | TRUE | – | – | 1 | 28 | Adenosine | – | – | TRUE | TRUE | 0.14 | TRUE | Pandda run, overall: Modeling comment [8]: Distal site, weak density, not modeled
16 | CC(C)(C)[C@@H]1CCN(c2ncnc3[nH]ccc23)[C@H](CO)C1 [AVI-3722] | 0.11 | – | TRUE | TRUE | 1 | 22 | – | 0.11 | TRUE | – | – | – | – | X-ray crystallography: Binding site: Adenosine
17 | O=C(O)C(F)(F)F.OCC(Nc1ncnc2[nH]ccc12)C1CCCO1 (centres unmarked) [AVI-3645] | – | – | – | – | – | – | – | – | – | TRUE | – | 0.22 | TRUE | Pandda run, overall: Modeling comment [8]: Weak density, not modeled; PanDDA run, TFA/DMSO background map: 1-BDC [10]: 0.12; PanDDA run, TFA/DMSO background map: Hit [10]: TRUE
